Measured values: paper PMC4887073, “Investigating the Role of Loop C Hydrophilic Residue ‘T244’ in the Binding Site of ρ1 GABAC Receptors via Site Mutation and Partial Agonism” (PLoS ONE, 2016)
Read-outs that look alike come from different tables or passages of the source. Blank lines part the entries; values can stand above or below the compound they belong to.

Tests used:
[1] = biological target: T1, human ρ1 GABAC WT receptors (Homo sapiens, UniProt P24046); test: Two-electrode voltage-clamp electrophysiology, Xenopus oocytes expressing ρ1 GABAC WT receptors; type: cell-based; conditions: for Emax: read-out: efficacy relative to the GABA maximal response, ligand applied alone; for additive effect on GABA EC50 response (GABA EC50 response set to 100%): co-applied with GABA EC50
T1 construct: expressed in transfected cells; host or cells: Xenopus laevis oocytes injected with cRNA
Protocol: Human ρ1 cDNA subcloned into pcDNA1.1 (Invitrogen, San Diego, CA, USA) was kindly provided by Dr. George Uh1 (National Institute for Drug Abuse, Baltimore, MD, USA).
(§1) ρ1 GABAC WT and mutant plasmids DNA were linearized by incubation with Xba1. ρ1 WT and mutant cRNA were synthesized using the T7 Transcription mMESSAGE mMACHINE Kit (Ambion, Austin, TX, USA) following the procedure described by the manufacture. The quantity and quality of synthesized CRNA was determined by absorbance at 260–280 nm using Nanodrop Spectrophotometer (Thermo Scientific, Wilmington, DE, USA). The purity of synthesized cRNA was confirmed by agarose gel electrophoresis (0.9%) using the GelDoc 1000 (Bio-Rad Laboratories, Hercules, CA USA).
(§2) A microprocessor-controlled micropipette puller (PUL-100, World Precision Instruments, Inc. FL, USA) was used to make micropipettes then RNA pulled up into the micropipette by a positive-displacement using micro-injector (Nanoliter micro-injector, World Precision Instruments, Inc. FL, USA). Oocytes were sorted and healthy ones were injected with 35–50 ng of ρ cRNA unless otherwise mentioned.
(§3) The injected oocytes were incubated for between two and four days after injection with desired RNA. Two-electrode voltage clamp instrument; Geneclamp 500 amplifier (Axon Instrument, Sydney, NSW, Australia) and Chart version 5.5.6 was used to measure the various activities at the receptors expressed by these oocytes. The recording microelectrodes were prepared by pulling using PUL-100 micropipette puller (World precision Instruments, Inc. FL, USA) and filled with 3 M KCl.
(§4) Dose response curves were generated using GraphPad PRISM 5.02 (GraphPad Software San Diego, CA).
(§5) The inhibitory concentration curves were generated using GraphPad PRISM 5.02 and IC50 values were calculated using Eq 2.

[2] = biological target: T2, ρ1 GABAC T244S mutant receptors (Homo sapiens, UniProt P24046, T265S); test: Two-electrode voltage-clamp electrophysiology, Xenopus oocytes expressing ρ1 T244S mutant receptors; type: cell-based; conditions: for effect of T244S mutation on antagonist potency: ρ1 T244S compared to WT
T2 construct: expressed in transfected cells; host or cells: Xenopus laevis oocytes injected with cRNA
Protocol: (§6) Pairs of the complementary mutagenic oligonucleotide primers were first designed to introduce single point mutations at human ρ1 GABAC subunit using UniProt. Primers were made by life technologies (Life Technologies^TM Australia Pty Ltd).
(§7) Site-directed mutagenesis was performed using QuikChange II site-directed mutagenesis kit as described by the manufacturer (Stratagene).
as §1, §2, §3, §4, §5

[3] = biological target: T3, ρ1 GABAC T244C mutant receptors (Homo sapiens, UniProt P24046, T265C); test: Two-electrode voltage-clamp electrophysiology, Xenopus oocytes expressing ρ1 T244C mutant receptors; type: cell-based
T3 construct: expressed in transfected cells; host or cells: Xenopus laevis oocytes injected with cRNA (raised to 300 ng/μl)
Protocol: as §6, §7, §1, §2, §3
Current responses were normalized to the maximum GABA-activated current (or other ligand which is stated as required) and expressed as a percentage, which was fitted by least squares to Hill equation (Eq 1). Dose response curves were generated using GraphPad PRISM 5.02 (GraphPad Software San Diego, CA).
GABA was first tested on all mutant receptors in order to determine the functionality of these receptors.

[4] = biological target: T4, ρ1 GABAC T244A mutant receptors (Homo sapiens, UniProt P24046, T265A); test: Two-electrode voltage-clamp electrophysiology, Xenopus oocytes expressing ρ1 T244A mutant receptors; type: cell-based
T4 construct: expressed in transfected cells; host or cells: Xenopus laevis oocytes injected with cRNA (raised to 300 ng/μl)
Protocol: as §6, §7, §1, §2, §3, §4

[5] = biological target: T1, human ρ1 GABAC WT receptors; set-up: method as in PMID 8386310; conditions: agonist applied alone; cited from earlier work
[6] = biological target: T2, ρ1 GABAC T244S mutant receptors; conditions: agonist effects eliminated; cited from earlier work
[7] = read-out: efficacy relative to the GABA maximal response, ρ1 T244S, ligand applied alone
[8] = high GABA concentrations, 300 ng/μl RNA

T1 sequence (P24046 22-479): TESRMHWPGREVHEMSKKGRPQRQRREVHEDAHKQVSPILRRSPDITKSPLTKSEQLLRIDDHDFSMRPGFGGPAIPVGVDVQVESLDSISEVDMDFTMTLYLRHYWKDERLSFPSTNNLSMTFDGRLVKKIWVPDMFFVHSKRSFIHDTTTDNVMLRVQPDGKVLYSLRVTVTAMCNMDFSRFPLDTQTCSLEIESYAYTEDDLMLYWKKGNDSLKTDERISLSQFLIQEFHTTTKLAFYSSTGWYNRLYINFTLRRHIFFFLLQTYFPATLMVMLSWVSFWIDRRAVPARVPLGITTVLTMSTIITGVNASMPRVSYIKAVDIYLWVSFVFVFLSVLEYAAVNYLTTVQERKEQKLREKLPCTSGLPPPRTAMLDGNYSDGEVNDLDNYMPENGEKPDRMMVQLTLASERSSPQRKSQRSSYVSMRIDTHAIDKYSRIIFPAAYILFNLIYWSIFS
T3 sequence (P24046 22-479 T265C): as the sequence (P24046 22-479) above, with T244C counted along it
T2 sequence (P24046 22-479 T265S): as the sequence (P24046 22-479) above, with T244S counted along it
T4 sequence (P24046 22-479 T265A): as the sequence (P24046 22-479) above, with T244A counted along it

Structure (SMILES): O=C(O)C1=CCNCC1 [isoguvacine]
Emax ([1]; ρ1 WT): 45%
additive effect on GABA EC50 response (GABA EC50 response set to 100%) ([1]; ρ1 WT): 135%
EC50 [5]: 200 µM
IC50 [2]: 25.3 µM

Structure (SMILES): CS(=O)(=O)SCCN [MTSEA, 2-aminoethylmethane thiosulfonate]
potency and efficacy compared with GABA ([3]; reversible responses): greater potency and efficacy than GABA
activation ([1]; ρ1 WT, applied alone): very weak efficacy and potency
effect on GABA EC50 response ([1]; ρ1 WT, co-applied with GABA EC50, concentrations below 100 μM): weak additive effects
effect on GABA EC50 response ([1]; ρ1 WT, co-applied with GABA EC50, concentrations of 100 μM and above): weakly antagonizes

Structure (SMILES): Oc1noc2c1CCNC2 [THIP, 4,5,6,7-tetrahydroisoxazolo[5,4-c]pyridin-3-ol]
effect of T244S mutation on antagonist potency [2]: no effect

Structure (SMILES): O=C(O)Cc1c[nH]cn1 [imidazole-4-acetic acid]
mode of action at mutant receptors [6]: acted only as competitive antagonists

Structure (SMILES): NCCC(=O)O [β-alanine]
IC50 [1]: 120 µM
weak additive effect on GABA EC50 response ([1]; xenopus oocytes): 125%
agonist character ([1]; ρ1 WT, applied alone): weak partial agonists
inhibition of GABA EC50 ([1]; ρ1 WT, concentrations greater than 100 μM): 60%
EC50 ([4]; 300 ng/μl mutant RNA injected): 1500 µM
efficacy compared with GABA ([4]; 30 mM concentration): approximately two times more efficacious than GABA
IC50 [2]: 1000 µM
Emax ([2]; read-out: maximum efficacy relative to the GABA maximal response at 30 mM, ρ1 T244S, ligand applied alone): 5%
weak additive effect on GABA EC50 response ([2]; xenopus oocytes): 115%
fold increase of IC50 ([2]; ρ1 T244S compared to ρ1 WT, against GABA EC50): 8 fold
inhibition of GABA EC50 ([2]; ρ1 T244S, concentrations greater than 100 μM): 60%

Structure (SMILES): NCc1cc(=O)[nH]o1 [muscimol]
efficacy compared with GABA [4]: less efficacious than GABA
mode of action at mutant receptors [6]: acted only as competitive antagonists

Structure (SMILES): CP(=O)(O)C1=CCNCC1 [TPMPA]
IC50 ([1]; ρ1 WT): 2.3 µM
effect when applied alone [4]: no effect
effect on β-alanine response ([4]; 1 mM against β-alanine response (30 mM)): weakly antagonizes
effect of T244S mutation on antagonist potency [2]: no effect

Further lines, results first:

EC50 ([1]; agonist applied alone, ρ1 WT): 95 µM
Emax ([1]; ρ1 WT): 60%
additive effect, % of GABA EC50 efficacy ([1]; ρ1 WT, co-applied with GABA EC50, at 100 μM ligand): 150%
Emax [2, 7]: 2%
magnitude of response, % of GABA IMAX ([2]; ρ1 T244S, 300 μM applied alone): less than 2%
agonist activity ([2]; ρ1 T244S, applied alone, minimal response at 300 μM): almost inactive
enhancement of the GABA EC50 effect ([2]; ρ1 T244S, co-applied with GABA EC50, at 100 μM ligand): ~20%
Structure (SMILES): NC/C=C\C(=O)O [CACA]

response ([3]; 30 mM, five times the RNA normally injected): very weak response
sensitivity of receptors to GABA ([3]; GABA 30mM, 50–100 ng/μl RNA): non-functional or insensitive
sensitivity of receptors to GABA [3, 8]: weakly responsive
effect on β-alanine response ([4]; 30 mM co-applied with 30 mM β-alanine): moderately inhibits
sensitivity of receptors to GABA ([4]; GABA 30mM, 50–100 ng/μl RNA): non-functional or insensitive
sensitivity of receptors to GABA [4, 8]: weakly responsive
Structure (SMILES): NCCCC(=O)O [GABA, γ-aminobutyric acid]

IC50 [1]: 37 µM
agonist character ([1]; ρ1 WT, applied alone): weak partial agonists
efficacy compared with GABA [4]: less efficacious than GABA
IC50 [2]: 17 µM
Structure (SMILES): NCCCCC(=O)O [5-aminovaleric acid]

agonist character ([1]; ρ1 WT, applied alone): weak partial agonists
direct activation of receptors ([1]; ρ1 WT, at mM concentrations, applied alone): 25%
additive effect on GABA EC50 response (GABA EC50 response set to 100%) ([1]; ρ1 WT): 180%
efficacy compared with GABA [4]: less efficacious than GABA
direct activation of receptors ([2]; ρ1 T244S, at mM concentrations, applied alone): 2%
additive effect on GABA EC50 response (GABA EC50 response set to 100%) ([2]; ρ1 T244S, co-applied with GABA EC50): 145%
maximum efficacy relative to the GABA maximal response at 30 mM ([2]; ρ1 T244S, ligand applied alone): 8%
Structure (SMILES): NCC(=O)O [glycine]

Emax ([1]; ρ1 WT): 95%
efficacy compared with GABA [4]: less efficacious than GABA
EC50 ([2]; agonist applied alone, ρ1 T244S): 14 µM
Emax [2, 7]: 110%
fold decrease in potency/activity ([2]; ρ1 T244S compared to ρ1 WT): 25 fold
Structure (SMILES): NC/C=C/C(=O)O [TACA, trans-aminocrotonic acid]
